This passage reports MIC and Activity results from ChEMBL document CHEMBL1147339, “Combination effects of antifungal nagilactones against Candida albicans and two other fungi with phenylpropanoids” (1993).

SMILES strings stand for the structures. Converted amounts (≈) assume the structure as drawn. The source made the active and inactive calls. The calls are words filed in the database; no cut-off is given here.

The test system of experiment [1] is Malassezia furfur. Put plainly: Antifungal activity against Pityrosporum ovale ATCC 14521 after 3 days by broth dilution method. Type of experiment: functional. The settings on record: ATCC 14521, 72 h.
For experiment [2], the system named is Candida albicans. Put plainly: Antifungal activity against Candida albicans ATCC 18804 after 2 days by broth dilution method. Type of experiment: functional. The note with it: ATCC 18804, 48 h.
Experiment [3] deals with Saccharomyces cerevisiae. Put plainly: Antifungal activity against Saccharomyces cerevisiae ATCC 7754 after 2 days by broth dilution method. It counts as functional. The note with it: ATCC 7754, 48 h.
Another experiment deals with Staphylococcus aureus. Nature of the experiment: Antimicrobial activity against Staphylococcus aureus ATCC 12598 up to 800 ug/mL after 2 days by broth dilution method. Type of experiment: functional, organism-based.
For another experiment, the system named is Klebsiella aerogenes. Put plainly: Antimicrobial activity against Enterobacter aerogenes ATCC 13048 up to 800 ug/mL after 2 days by broth dilution method. It counts as functional, organism-based.
Experiment [4] deals with Saccharomyces cerevisiae. Nature of the experiment: Antifungal activity against Saccharomyces cerevisiae ATCC 7754 at 800 ug/mL after 2 days by broth dilution method. The settings on record: ATCC 7754, 48 h. It counts as functional.
The next experiment deals with Pseudomonas aeruginosa. Nature of the experiment: Antimicrobial activity against Pseudomonas aeruginosa ATCC 10145 up to 800 ug/mL after 2 days by broth dilution method. Type of experiment: functional, organism-based.
The next experiment has as its system Escherichia coli. Nature of the experiment: Antimicrobial activity against Escherichia coli ATCC 9637 up to 800 ug/mL after 2 days by broth dilution method. It counts as functional, organism-based.
The subject of a further experiment is Penicillium chrysogenum. Nature of the experiment: Antimicrobial activity against Penicillium chrysogenum ATCC 10106 up to 800 ug/mL after 5 days by broth dilution method. It counts as functional, organism-based.
The test system of experiment [5] is Corynebacterium ammoniagenes. Put plainly: Antimicrobial activity against Brevibacterium ammoniagenes ATCC 6872 up to 800 ug/mL after 2 days by broth dilution method. Type of experiment: functional, organism-based.
In the next experiment the test system is Streptococcus mutans. Put plainly: Antimicrobial activity against Streptococcus mutans ATCC 25175 up to 800 ug/mL after 2 days by broth dilution method. Type of experiment: functional, organism-based.
In another experiment the test system is Cutibacterium acnes. Put plainly: Antimicrobial activity against Propionibacterium acnes ATCC 11827 up to 800 ug/mL after 2 days by broth dilution method. It counts as functional, organism-based.
Experiment [6] has as its system Malassezia furfur. Nature of the experiment: Antifungal activity against Pityrosporum ovale ATCC 14521 at 800 ug/mL after 3 days by broth dilution method. Type of experiment: functional, organism-based.
Experiment [7] relates to Saccharomyces cerevisiae. Nature of the experiment: Antifungal activity against Saccharomyces cerevisiae ATCC 7754 at 1600 ug/mL after 2 days by broth dilution method. Type of experiment: functional, organism-based.
For experiment [8], the system named is Candida albicans. Nature of the experiment: Antifungal activity against Candida albicans ATCC 18804 at 800 ug/mL after 2 days by broth dilution method. It counts as functional, organism-based.
The test system of another experiment is Bacillus subtilis. Put plainly: Antimicrobial activity against Bacillus subtilis ATCC 9372 up to 800 ug/mL after 2 days by broth dilution method. The note with it: ATCC 9372, 48 h. Type of experiment: functional.

As to `C/C=C/c1ccccc1`, the values for the MIC in the experiment on Malassezia furfur [1], against Candida albicans [2] and with Saccharomyces cerevisiae [3] were above 800 µg/mL, 400 µg/mL (≈ 3380 µM) and 400 µg/mL (≈ 3380 µM), respectively.
Take `CC(C)[C@H]1OC(=O)C=C2C1=C[C@H]1OC(=O)[C@@]3(C)C[C@H](O)C[C@@]2(C)[C@@H]13`: the outcome (in the experiment with Staphylococcus aureus; in the experiment with Klebsiella aerogenes; in the experiment on Pseudomonas aeruginosa; with Escherichia coli; in the experiment on Penicillium chrysogenum; in experiment [5]) was inactive. Besides, the result in the experiment with Streptococcus mutans and in the experiment on Cutibacterium acnes was inactive. Moreover, the MIC against Saccharomyces cerevisiae [4] and with Saccharomyces cerevisiae [3] was 800 µg/mL (≈ 2410 µM) in each case.
Consider `COc1ccc(/C=C/C(=O)O)cc1` [4-METHOXYCINNAMIC ACID], for which the MIC was above 800 µg/mL against Malassezia furfur [1], 200 µg/mL (≈ 1120 µM) in the experiment on Candida albicans [2] and 100 µg/mL (≈ 561 µM) against Saccharomyces cerevisiae [3].
Taken in the same sequence, the figures for `C=CCc1ccccc1` [ALLYLBENZENE] were above 800 µg/mL, 400 µg/mL (≈ 3380 µM) and 400 µg/mL (≈ 3380 µM).
For `C/C=C/c1ccc(OC)cc1` [ANETHOLE], in that order: 200 µg/mL (≈ 1350 µM), 200 µg/mL (≈ 1350 µM) and 200 µg/mL (≈ 1350 µM).
Consider `COc1ccc(O)c(C(C)(C)C)c1.COc1ccc(O)cc1C(C)(C)C` [BUTYLATED HYDROXYANISOLE], for which the MIC in the experiment on Malassezia furfur [1] and with Saccharomyces cerevisiae [3] was 200 µg/mL throughout.
Turning to `C=CCc1ccc(O)c(OC)c1` [EUGENOL], the values for the MIC against Malassezia furfur [1], against Candida albicans [2] and in the experiment with Saccharomyces cerevisiae [3] were 200 µg/mL (≈ 1220 µM), 800 µg/mL (≈ 4870 µM) and 800 µg/mL (≈ 4870 µM), respectively.
Turning to `C/C=C\c1ccc(O)c(OC)c1` [ISOEUGENOL], the MIC against Malassezia furfur [1] is 200 µg/mL (≈ 1220 µM); in the experiment on Candida albicans [2] it was 400 µg/mL (≈ 2440 µM); against Saccharomyces cerevisiae [3] it was 400 µg/mL (≈ 2440 µM).
As to `C/C=C/c1ccc2c(c1)OCO2` [ISOSAFROLE], the MIC stood at 100 µg/mL (≈ 617 µM) against Malassezia furfur [1], 100 µg/mL (≈ 617 µM) with Candida albicans [2] and 200 µg/mL (≈ 1230 µM) against Saccharomyces cerevisiae [3].
In the case of `C=CCc1ccc(OC)c(OC)c1` [METHYLEUGENOL], the values for the MIC in the experiment on Malassezia furfur [1], against Candida albicans [2] and in the experiment with Saccharomyces cerevisiae [3] were 200 µg/mL (≈ 1120 µM), 800 µg/mL (≈ 4490 µM) and 800 µg/mL (≈ 4490 µM), respectively.
For `C/C=C/c1ccc(OC)c(OC)c1` [METHYLISOEUGENOL], the MIC in the experiment with Malassezia furfur [1] was 200 µg/mL (≈ 1120 µM); with Candida albicans [2], 400 µg/mL (≈ 2240 µM); in the experiment on Saccharomyces cerevisiae [3], 400 µg/mL (≈ 2240 µM).
As for `CC(C)c1oc(=O)cc2c1[C@@H](O)[C@H]1OC(=O)[C@@]3(C)[C@@H](O)[C@H]4O[C@H]4[C@@]2(C)[C@@H]13` [NAGILACTONE C], the MIC with Malassezia furfur [1] and with Saccharomyces cerevisiae [3] was above 1600 µg/mL in each case. Moreover, the outcome in the experiment on Malassezia furfur [6], in the experiment on Staphylococcus aureus, with Klebsiella aerogenes, in the experiment with Pseudomonas aeruginosa, in the experiment with Escherichia coli and in the experiment with Saccharomyces cerevisiae [7] was inactive. The outcome (in the experiment with Penicillium chrysogenum; with Candida albicans [8]; in [5]; in the experiment on Streptococcus mutans; in the experiment with Cutibacterium acnes) was inactive.
In the case of `CC(C)[C@H]1OC(=O)C=C2C13O[C@@H]3[C@H]1OC(=O)[C@@]3(C)[C@@H](O)CC[C@@]2(C)[C@@H]13` (some centres not stated) [NAGILACTONE E], the MIC against Malassezia furfur [1] came out at 50 µg/mL (≈ 144 µM); in the experiment on Candida albicans [2] it was 800 µg/mL (≈ 2300 µM); against Bacillus subtilis, 50 µg/mL (≈ 144 µM); against Saccharomyces cerevisiae [3], 100 µg/mL (≈ 287 µM). For the same compound, the outcome (in the experiment on Staphylococcus aureus; with Klebsiella aerogenes; with Pseudomonas aeruginosa; in the experiment with Escherichia coli; with Penicillium chrysogenum; in experiment [5]) was inactive. The outcome with Streptococcus mutans and with Cutibacterium acnes was inactive.
Regarding `O=C(O)c1ccc(O)cc1` [PARABEN], the figures for the MIC against Malassezia furfur [1] and in the experiment with Saccharomyces cerevisiae [3] were 100 µg/mL (≈ 724 µM) and 200 µg/mL (≈ 1450 µM), respectively.
Turning to `C=CCc1ccc2c(c1)OCO2` [SAFROLE], the minimal inhibitory concentration (MIC) against Malassezia furfur [1], with Candida albicans [2] and in the experiment with Saccharomyces cerevisiae [3] was 200 µg/mL (≈ 1230 µM) each time.
Consider `C/C=C/c1cc(OC)c(OC)cc1OC` [TRANS-ASARONE], for which the MIC amounted to 200 µg/mL (≈ 960 µM) in the experiment on Malassezia furfur [1], 800 µg/mL (≈ 3840 µM) in the experiment with Candida albicans [2] and 800 µg/mL (≈ 3840 µM) against Saccharomyces cerevisiae [3].
